The values that follow come from patent publication US20260007729A1, “IM[…] VIRAL […](S)” (IMMUNEO Therapeutics GmbH, priority 2022, published 2026).

In assay [1] the test system is PBMCs from a healthy adult human. Nature of the assay: IFNγ ELISpot analysis of antigen peptides ex vivo. The class given is cell-based. The settings on record: for Activation*10 (IFNγ activity, activation values times 10): calculated by formula, neg 36.0; for Cells/100,000 cells (positive counts per 100,000 cells): cells pre-stimulated with peptide pool, 267,000 cells per well, duplicates; for Effectiveness of immunization (product of number of activated cells and activation): FIG. 11, descending order.

Assay [2] relates to peripheral blood mononuclear cells (PBMCs) from a human donor. Nature of the assay: Intracellular Cytokine Staining (ICS) of antigen polypeptides. Format: cell-based. As to the method:
An Intracellular Cytokine Staining (ICS) assay to assess the T-cell responses induced by an antigen polypeptide in the spirit of the current invention was carried out following this experimental procedure. The experimental procedure involved several sequential steps to prepare and analyze freshly harvested peripheral blood mononuclear cells (PBMCs) from a human donor.
PBMCs were cultured in RPMI-1640 medium supplemented with 10% fetal bovine serum, penicillin-streptomycin, and L-glutamine at 37° C. with 5% CO2. After culture, the cells were divided into different experimental groups. The cells were then stimulated with the antigen peptide vaccine or a control peptide, along with appropriate cytokines and co-stimulatory molecules to facilitate T cell activation. The antigen peptide was designed to effectively stimulate both CD4 and CD8 T-cell responses.
To inhibit cytokine secretion and promote intracellular cytokine accumulation, brefeldin A was added to the stimulated cells at a concentration of 10 μg/mL, and the cells were incubated overnight. Subsequently, the cells were harvested, and staining was performed. Fluorescently labeled antibodies, including AlexaFluor 488-conjugated anti-IFNγ and APC-H7-conjugated anti-CD4, as well as Pacific Orange-conjugated anti-CD8 and a cell surface marker were added to the cells and incubated.
To facilitate antibody access to intracellular molecules, the cells were fixed and permeabilized using a fixation solution and permeabilization buffer. Intracellular cytokine staining was carried out by adding fluorescently labeled antibodies against IFNγ or other cytokines of interest. Following staining, flow cytometry analysis was performed by gating on CD4 and CD8 T cells to determine the percentage of cytokine-producing cells.
The obtained data were analyzed to compare the percentage of cytokine-producing CD4 and CD8 T cells stimulated with the antigen polypeptides to that of unstimulated CD4 and CD8 T cells or T cells stimulated with a control peptide. […]

Assay [3] concerns T cell CD4 and CD8 activity. Nature of the assay: Antigen response in mice, second trial (immunization, intracellular cytokine staining). Format: in vivo, wild-type mice (C57BL/6). The settings on record: mice immunized with Pep2 C, restimulation with peptides (FIG. 9). As to the method: 3 Groups of wild-type mice (C57BL/6) consisting of 5 mice (group 2,3) and 3 mice for the negative control (group 1) were administered different vaccine candidates (as following) for evaluation.
The Groups were administered the following compositions: • a) Group 1 (no vac.): no vaccine • b) Group 2 (Pep2 C): peptide mix (60 μg per single peptide, 12 peptides selected from SEQ ID NOs: 43, 44, 46, 47, 50-58) with c-di-AMP (10 mg/dose) adjuvant • c) Group 3 (mRNA): Comirnaty mRNA vaccine (5 μg/dose)
The antigen peptide formulations in accordance with the present invention were administered subcutaneous (SC) three times in two-week intervals (see FIG. 7), the mRNA vaccine was administered intramuscular (IM) two times in a four-week interval (Group 3). After five weeks the immune response was determined, T cell CD8 activity was examined by cytokines secreted in response to stimulation with the peptide antigens were determined by intracellular cytokine staining (ICS) with Intracellular cytokine staining with IFNγ and TNFγ. Specific antibodies.

Take KDLSPRWYFYYLGTG [Pep-20]: the “Activation*10 (IFNγ activity, activation values times 10)” value in assay [1] was 93.3. Further, the “Cells/100,000 cells (positive counts per 100,000 cells)” value in assay [1] (neg 25.8) was 31.5 Cells/100,000 cells.

With DGYFKIYSKHTPINLV [Pep-17], the “Effectiveness of immunization (product of number of activated cells and activation)” value (“Effectiveness of immunization” for short) in assay [1] is on record as “most effective”. Besides, in assay [1], the “Activation*10 (IFNγ activity, activation values times 10)” value is given as 99.6. Also, the “Cells/100,000 cells (positive counts per 100,000 cells)” value in assay [1] (neg 25.8) was 249.1 Cells/100,000 cells; in assay [1] (neg 25.8, listed as Peptide 17), “especially high counts”.

As to AATKMSECVLGQSKRVD [Pep-9], in assay [1], the “Activation*10 (IFNγ activity, activation values times 10)” value was 38.0. For the same sequence, the “Cells/100,000 cells (positive counts per 100,000 cells)” value in assay [1] (neg 25.8) was 22.1 Cells/100,000 cells.

Consider “RQGTDYKHWPQIAQF (synthetic peptide used as antigen comprising at least one HLA antigen peptide) [Pep-19]”, for which, in assay [1], the “Activation*10 (IFNγ activity, activation values times 10)” value is on record as 36.6. The “Cells/100,000 cells (positive counts per 100,000 cells)” value in assay [1] (neg 25.8) was 21.3 Cells/100,000 cells.

For the sequence MAYRFNGIGVTQNVLYE [Pep-7], the “Effectiveness of immunization” value in assay [1] is listed as “most effective”. The “Cells/100,000 cells (positive counts per 100,000 cells)” value in assay [1] (neg 25.8) is on record as 41.9 Cells/100,000 cells. Further, the “CD8 / CD8+ response in ICS” value in assay [2] (FIG. 5, FIG. 9, groups of Table E7-1) is listed as “strong CD8+ response”. The “CD4 response in ICS” value in assay [2] (FIG. 8, groups of Table E7-1) is “some CD4 response”. The “Individual activities in the ICS study” value in assay [2] (single peptides) is on record as “high individual activities”. Further, in assay [3], the “Single peptide-specific CD8 T cell reaction” value is recorded as “caused a CD8 T cell reaction”.

Take IRAAEIRASANLAATKM [Pep-21]: in assay [1], the “Effectiveness of immunization” value is “most effective”. For the same sequence, the “Cells/100,000 cells (positive counts per 100,000 cells)” value in assay [1] (neg 25.8) is listed as 50.9 Cells/100,000 cells.

Take TFEYVSQPFLMDLEGKQ [Pep-13]: in assay [1], the “Effectiveness of immunization” value is “most effective”; the “Activation*10 (IFNγ activity, activation values times 10)” value is reported as 53.1. In addition, in assay [1] (neg 25.8), the “Cells/100,000 cells (positive counts per 100,000 cells)” value was 322.8 Cells/100,000 cells. The “Cells/100,000 cells (positive counts per 100,000 cells)” value in assay [1] (neg 25.8, listed as Peptide 13) is given as “especially high counts”.

For LGKYEQYIKWPWYIWLGFIAG [Pep-15], the “Activation*10 (IFNγ activity, activation values times 10)” value in assay [1] is 36.5. In assay [1] (neg 25.8), the “Cells/100,000 cells (positive counts per 100,000 cells)” value is 16.9 Cells/100,000 cells.

Turning to AISSVLNDILSRLDKVE [Pep-10], the “Activation*10 (IFNγ activity, activation values times 10)” value in assay [1] is 34.8. For the same sequence, the “Cells/100,000 cells (positive counts per 100,000 cells)” value in assay [1] (neg 25.8) is given as 17.2 Cells/100,000 cells.

Take GKEDLKFPRGQGVPINTNSS [Pep-18]: the “Activation*10 (IFNγ activity, activation values times 10)” value in assay [1] is recorded as 10.1. In addition, the “Cells/100,000 cells (positive counts per 100,000 cells)” value in assay [1] (neg 25.8) is recorded as 24.3 Cells/100,000 cells.

Regarding GDCLGDIAARDLIC [Pep-14], the “Effectiveness of immunization” value in assay [1] is “most effective”. The “Cells/100,000 cells (positive counts per 100,000 cells)” value in assay [1] (neg 25.8) is reported as 262.2 Cells/100,000 cells; in assay [1] (neg 25.8, listed as Peptide 14) it was “especially high counts”.
